Experiment: Solubility of C16TR in propellants
Type: physicochemical
Conditions: HFA134a, HFA227ea, and HFA152a
Source text: C16TR is insoluble in all commercially available propellants (HFA134a, HFA227ea, and HFA152a) and requires the use of alcohol co-solvent. When formulated with DSPE-PEG2000 and PEG400 for use with an MDI as well as desirable in vivo performance, the formulation required approximately 10% of alcohol co-solvent. Such a high level of alcohol co-solvent may lead to reduced chemical stability and aerosol performance. Unexpected improvement in chemical stability was observed when a switch from ethanol (industry standard cosolvent) to isopropyl alcohol (novel excipient) was made, as in the C16TR-MDI-W formulation.

solubility in commercially available propellants: insoluble
SMILES: CCCCCCCCCCCCCCCCOC(=O)COc1cccc2c1C[C@H]1C[C@@H](O)[C@H](CC[C@@H](O)CCCCC)[C@H]1C2 [Formulation C16TR, Treprostinil palmitil]

Source: patent US20240238309A1, “PHARMACEUTICAL FORMULATIONS OF TREPROSTINIL PRODRUGS AND METHODS OF USE THEREOF” (Insmed Incorporated, priority 2020, published 2024)
